“Also recorded” adds a separate entry of the source.
Columns and labels:
[1] = test system: HT1080, CHME3, VERO cells; assay: MTT cell viability assay; type: cell-based, human and monkey; conditions: human or monkey cells (HT1080, CHME3, VERO); 48 hours
Experimental: Cell viability was determined by measuring the reduction of the tetrazolium dye MTT [3-(4,5-dimethylthiazol-2-yl)-2,5-diphenyltetrazolium bromide] to its insoluble form formazan. We treated 4×10^3 cells/well in a 96-well plate with serial dilutions of the indicated drugs. Human and monkey cells were incubated with DGP, diphyllin, or 6-deoxy-D-glucose for 48 hours at 37° C. After the incubation period, 10 μl MTT solution (5 mg/mL) was added to each well for an additional 4 hours at 37° C. Finally, the media was removed and dimethyl sulfoxide was added (200 μl/well) according to the manufacturer's instructions. The optical density was measured at 570 nm using a microplate reader. Experiments were performed in triplicates and standard deviations are shown. Mock-treated cells represent 100% viability.

[2] = test system: type I IFN response (IFN-β); assay: Type I IFN response (IFN-β induction, qRT-PCR) in ZIKV-challenged CHME3 cells; type: cell-based, human; conditions: ZIKV MR766 MOI 1, 0.1 μM and 1 μM, 48 hours
Description: ZIKV infection activates the type I IFN response via IFN-stimulated genes that are activated by the host after recognition of viral components. If ZIKV is inhibited at a pre-fusion step, viral nucleic acids and proteins will not be exposed to the host cytosol; thus the type I IFN response will not be activated. To test whether DGP treatment prevents activation of the type I IFN response, CHME3 cells we challenged using ZIKV MR766 at an MOI of 1 in the presence of different DGP concentrations. At 48 hours post-challenge, the type I IFN response was assessed using qRT-PCR to measure IFN-β induction (FIG. 5).
ZIKV RNA levels were measured using real-time PCR. HT1080 and VERO cells were challenged by ZIKV MR766 at an MOI of 1 in the presence of DGP. At 48 hours post-challenge, cells were lysed and total RNA was extracted using trizol. Total RNA was used to determine the levels of ZIKV RNA by real-time PCR using specific primers against ZIKA. qRT-PCR was carried out using SYBR green in a 20-μl final volume using a MASTERCYCLER proS machine. The primers used to detect ZIKV were: SEQ ID NO. 1: 5′-TT […]-3′-Forward (Genome Position 941-964) and SEQ ID NO. 2: 5′-[…]-3′-Reverse (Genome position 1123-1103) (AY632535.2). For the detection of SeV, the following primers were used: SEQ ID NO. 3: 5′-[…]-3′-Forward (Genome position 210-233) and SEQ ID NO. […]

ZIKV strain MR766 = assay: In situ (+)-ZIKV RNA hybridization in VERO cells; type: cell-based, Zika virus; conditions: MOI 0.5, 1 μM, 48 hours
Experimental: To determine the ZIKV life cycle stage at which DGP acts, two approaches were used to measure the production of viral RNA: 1) In situ hybridization to image viral RNA by using fluorescent probes, and 2) Reverse transcription PCR (qRT-PCR) to quantify viral RNA. […] At 48 hours post-infection, cells were fixed/permeabilized and ZIKV positive-strand RNA and detected by in situ hybridization using a specific fluorescently labeled negative-strand probe (green) and cell nuclei were stained using 4%6-diamidino-2-phenylindole (DAPI; blue). Twenty-five random images were captured for each treatment (Mock, ZIKV MR766, and ZIKV MR766+DGP 1 μM). To quantify the extent of infection, 400 cells per treatment were randomly counted and the percentage of infected (green) cells were calculated.
ZIKV RNA in cultured adherent cells was probed using the RNAscope reagents and protocol (Advanced Cell Diagnostics) (Wang, F. et al. 2012, “RNAscope: a novel in situ RNA analysis platform for formalin-fixed, paraffin-embedded tissues.” J Mol Diagn 14(1): 22-29) with some modifications as previously described (Puray-Chavez, M. 2017, “Multiplex single-cell visualization of nucleic acids and protein during HIV infection.” Nat Commun 8(1): 1882. Fixed cells on coverslips were washed twice with PBS, then incubated with 0.1% Tween-20 in PBS (PBS-T) for 10 min at room temperature (RT) and washed in PBS for 1 min. […]

TBEV-RVP = type: cell-based, tick-borne encephalitis virus
WNV-RVP = type: cell-based, West Nile virus; conditions: VERO cells; DGP 1 μM; NH4Cl 20 mM

COc1cc2c(OC3OC(C)C(O)C(O)C3O)c3c(c(-c4ccc5c(c4)OCO5)c2cc1OC)C(=O)OC3 (stereo not drawn) [DGP, 6-deoxyglucose-diphyllin]
toxicity at concentrations required to inhibit ZIKV infection (MTT) [1]: non-toxic; also recorded: not toxic
activation of the type I IFN response (IFN-β induction) [2]: substantially decreased and/or prevented
% Infected Cells (ZIKV strain MR766): 3.05%
Infected Cells (Green) (ZIKV strain MR766; of 400 cells counted): 12
TBEV RVP infection (TBEV-RVP): almost undetectable
WNV RVP infection (WNV-RVP): almost undetectable

From patent US20220323471A1 (priority 2019, published 2022)
